From patent US9302999B2, “Substituted triazoles as herbicides” (E. I. DU PONT DE NEMOURS AND COMPANY, priority 2012, dated 2016)

Key:
Type in all cases: in vivo
[1] = test system: chickweed (common chickweed, Stellaria media); experiment: Test C postemergence: chickweed
Outline: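 Response values are visual ratings, 0 (no effect) to 100 (complete control), made by comparison with untreated controls 13 to 15 days after postemergence treatment of greenhouse-grown potted plants that were 2 to 18 cm high at spraying.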

[2] = test system: nutsedge, yellow (yellow nutsedge, Cyperus esculentus); experiment: Test C pre-/postemergence: nutsedge, yellow
Outline: (§1)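 Visual injury scored 0–100 (100 = complete control) against untreated controls after 13–15 greenhouse days. Surfactant-containing solvent formulations applied either to soil after sowing (loam/sand) or over 1- to 4-leaf plants, 2–18 cm tall.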

[3] = test system: velvetleaf (Abutilon theophrasti); experiment: Test C pre-/postemergence: velvetleaf
Outline: as §1

[4] = test system: ragweed (common ragweed, Ambrosia elation); experiment: Test C pre-/postemergence: ragweed
Outline: as §1

[5] = test system: foxtail, giant (giant foxtail, Setaria faberii); experiment: Test C pre-/postemergence: foxtail, giant
Outline: as §1

[6] = test system: ducksalad (Heteranthera limosa); experiment: Test B flooded paddy: ducksalad; settings: Flood; 250 g ai/ha; applied to paddy water at 2-leaf stage; visually evaluated after 13 to 15 days
Outline: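 Two-leaf-stage plants, pots flooded (3 cm above soil) and treated through the water, which stayed at that depth. After 13–15 days in greenhouse conditions, visual assessment versus controls: 0 is no effect, 100 complete control, dash means no result.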

corn (Zea mays) [7] = experiment: Test C pre-/postemergence: corn
Outline: as §1

corn (Zea mays) [8] = experiment: Test A pre-/postemergence: corn
Outline: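 Whole-plant greenhouse assay in loam/sand. Preemergence directed soil spray plus simultaneous postemergence spray (one- to two-leaf stage, 2–10 cm). Rated visually ~10 days later, 0 = no effect, 100 = complete control.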

wild oat (Avena fatua) = experiment: Test C pre-/postemergence: wild oat; settings: Postemergence
Outline: as §1

kochia (Kochia scoparia) = experiment: Test C pre-/postemergence: kochia; settings: Postemergence
Outline: as §1

[9] = test system: large crabgrass (Digitaria sanguinalis); experiment: Test C pre-/postemergence: large crabgrass
Outline: as §1

[10] = 31 g ai/ha, scale 0 to 100 (0 no effect, 100 complete control)
[11] = 62 g ai/ha, scale 0 to 100 (0 no effect, 100 complete control)
[12] = 125 g ai/ha, scale 0 to 100, 0 no effect, 100 complete control
[13] = Postemergence, 31 g ai/ha, scale 0 to 100 (0 no effect, 100 complete control)
[14] = Postemergence, 62 g ai/ha, scale 0 to 100 (0 no effect, 100 complete control)
[15] = Postemergence, 125 g ai/ha, scale 0 to 100, 0 no effect, 100 complete control
[16] = Postemergence, 250 g ai/ha, scale 0 to 100
[17] = Preemergence, 31 g ai/ha, scale of 0 to 100, 0 is no effect, 100 is complete control
[18] = Preemergence, 62 g ai/ha, scale of 0 to 100, 0 is no effect, 100 is complete control
[19] = Preemergence, 125 g ai/ha, scale 0 to 100, 0 no effect, 100 complete control
[20] = Preemergence, 250 g ai/ha, scale 0 to 100, 0 no effect, 100 complete control

## Cc1nn(-c2ccc(F)c(C(F)(F)F)c2)nc1Cc1ccnc(C(F)(F)F)c1 [Compound 156]
[1]; [10]
  Plant response rating, Chickweed: 95
[1]; [11]
  Plant response rating, Chickweed: 95
[1]; [12]
  Plant response rating, Chickweed: 95
[1]; 250 g ai/ha, scale 0 to 100
  Plant response rating, Chickweed: 98
[2]; [13]
  Plant response rating, Nutsedge, Yellow: 5
[2]; [14]
  Plant response rating, Nutsedge, Yellow: 10
[2]; [15]
  Plant response rating, Nutsedge, Yellow: 10
[2]; [16]
  Plant response rating, Nutsedge, Yellow: 10
[2]; [17]
  Plant response rating, Nutsedge, Yellow: 0
[2]; [18]
  Plant response rating, Nutsedge, Yellow: 0
[2]; [19]
  Plant response rating, Nutsedge, Yellow: 0
[2]; [20]
  Plant response rating, Nutsedge, Yellow: 0
[3]; [13]
  Plant response rating, Velvetleaf: 45
[3]; [14]
  Plant response rating, Velvetleaf: 50
[3]; [15]
  Plant response rating, Velvetleaf: 60
[3]; [16]
  Plant response rating, Velvetleaf: 80
[3]; [17]
  Plant response rating, Velvetleaf: 5
[3]; [18]
  Plant response rating, Velvetleaf: 40
[3]; [19]
  Plant response rating, Velvetleaf: 40
[3]; [20]
  Plant response rating, Velvetleaf: 100
[4]; [13]
  Plant response rating, Ragweed: 75
[4]; [14]
  Plant response rating, Ragweed: 75
[4]; [15]
  Plant response rating, Ragweed: 75
[4]; [16]
  Plant response rating, Ragweed: 80
[4]; [17]
  Plant response rating, Ragweed: 5
[4]; [18]
  Plant response rating, Ragweed: 10
[4]; [19]
  Plant response rating, Ragweed: 30
[4]; [20]
  Plant response rating, Ragweed: 60
[5]; [13]
  Plant response rating, Foxtail, Giant: 10
[5]; [14]
  Plant response rating, Foxtail, Giant: 15
[5]; [15]
  Plant response rating, Foxtail, Giant: 25
[5]; [16]
  Plant response rating, Foxtail, Giant: 50
[5]; [17]
  Plant response rating, Foxtail, Giant: 90
[5]; [18]
  Plant response rating, Foxtail, Giant: 90
[5]; [19]
  Plant response rating, Foxtail, Giant: 90
[5]; [20]
  Plant response rating, Foxtail, Giant: 95
[6]
  Plant response rating, Ducksalad (0 to 100 scale, 0 is no effect, 100 is complete control): 90
Corn (Zea mays) [7]; [14]
  Plant response rating, Corn: 15
Corn (Zea mays) [7]; [15]
  Plant response rating, Corn: 25
Corn (Zea mays) [7]; [16]
  Plant response rating, Corn: 30
Corn (Zea mays) [7]; [17]
  Plant response rating, Corn: 5
Corn (Zea mays) [7]; [18]
  Plant response rating, Corn: 5
Corn (Zea mays) [7]; [19]
  Plant response rating, Corn: 10
Corn (Zea mays) [7]; [20]
  Plant response rating, Corn: 30
Corn (Zea mays) [8]; Postemergence, 125 g ai/ha, 0 to 100 scale, 0 is no effect, 100 is complete control
  Plant response rating, Corn: 40
Corn (Zea mays) [8]; Postemergence, 500 g ai/ha, visual rating on 0 to 100 scale (0 no effect, 100 complete control), approximately ten days
  Corn plant response rating: 70
Corn (Zea mays) [8]; Preemergence, 125 g ai/ha, 0 to 100 scale where 0 is no effect and 100 is complete control
  Plant response rating, Corn: 40
Corn (Zea mays) [8]; Preemergence, 500 g ai/ha, 0 to 100 scale (0 no effect, 100 complete control)
  Plant response rating, Corn: 70
Wild oat (Avena fatua); [10]
  Plant response rating, Oat, Wild: 35
Wild oat (Avena fatua); [11]
  Plant response rating, Oat, Wild: 50
Wild oat (Avena fatua); [12]
  Plant response rating, Oat, Wild: 50
Wild oat (Avena fatua); 250 g ai/ha, scale 0 to 100
  Plant response rating, Oat, Wild: 70
Kochia (Kochia scoparia); [10]
  Plant response rating, Kochia: 90
Kochia (Kochia scoparia); [11]
  Plant response rating, Kochia: 90
Kochia (Kochia scoparia); [12]
  Plant response rating, Kochia: 90
Kochia (Kochia scoparia); 250 g ai/ha, scale 0 to 100
  Plant response rating, Kochia: 95
[9]; [13]
  Plant response rating, Crabgrass, Large: 10
[9]; [14]
  Plant response rating, Crabgrass, Large: 30
[9]; [15]
  Plant response rating, Crabgrass, Large: 40
[9]; [16]
  Plant response rating, Crabgrass, Large: 70
[9]; [17]
  Plant response rating, Crabgrass, Large: 90
[9]; [18]
  Plant response rating, Crabgrass, Large: 90
[9]; [19]
  Plant response rating, Crabgrass, Large: 98
[9]; [20]
  Plant response rating, Crabgrass, Large: 100
